Where two headings read alike, the source gives them in different places.
Tests used:
DNA [1] = assay: DNA crosslinking efficiency of psoralen reagents (general statements, no method given); format: biochemical; conditions: studies conducted by the inventors
DNA [2] = conditions: background statement on commercially available reagent; cited from earlier work

O=C(CCCOc1c2occc2cc2ccc(=O)oc12)ON1C(=O)CCC1=O [SPB, succinimidyl-[4-(psoralen-8-yloxy)]butyrate]
DNA crosslinking efficiency (DNA [1]): very low

Cc1oc2c(C)c3oc(=O)cc(C)c3cc2c1COCCCCCCOP(OCCC#N)N(C(C)C)C(C)C (centres unmarked) [Psoralen C6 Phosphoramidite, 6-[4′-(Hydroxymethyl)-4,5′,8-trimethylpsoralen]-hexyl-1-O-(2-cyanoethyl)-(N,N-diisopropyl)-phosphoramidite]
DNA crosslinking efficiency (DNA [2]): favorable DNA crosslinking efficiency
